Results as given in patent US10428099B2, “Pharmaceutical co-crystal composition and use thereof” (SYN-NAT PRODUCTS ENTERPRISE LLC, priority 2015, dated 2019).
Read-outs that look alike come from different tables or passages of the source.

Assays:
HL-7002 cells [1] = experiment: cells; settings: Homo sapiens, Hepatocyte
HCT-116 cells = experiment: MTS cell viability assay in colorectal cancer cell line HCT-116; type: cell-based; settings: step-wise concentrations 0.01 to 300 μM, OD490, FIG. 5, read-out: IC50 for the reduction of HCT-116 cell number
Method: (§1) The index of cell growth repression ratio was obtained by comparing the OD490 data of treatment group to the negative control. The drug response rate IC50 was calculated with the SPSS 16.0 system.
(§2) The cells were cultured in RPMI+5% Fetal Bovine Serum (FBS).
(§3) The cells were monitored daily, and the cell viability was evaluated with the Promega CellTiter 96 AQueous One Solution Cell Proliferation Assay (Promega, Madison, Wis., USA) according to the manufacture manuals. The cell viability was monitored at OD490 reading in a bio-spectrometer (Perkin Elmer, Walthan, Mass., USA).
(§4) Data analysis: The OD490 reading data were collected hourly from 1 h to 4 h after the addition of lysis buffer. The index of cell growth repression ratio was obtained by comparing the OD490 data of treatment to the negative control. The drug response rate IC50 was calculated with the SPSS 16.0.

HL-7002 cells [2] = settings: step-wise concentrations 0.01 to 300 μM, OD490, FIG. 3 and FIG. 7
HT29 cells = experiment: MTS cell viability assay in colorectal cancer cell line HT29; type: cell-based; settings: step-wise concentrations 0.01 to 300 μM, OD490, FIG. 6
Method: HT29 cells are a colorectal cancer cell line. […] The index of cell growth repression ratio was obtained by comparing the OD490 data of treatment group to the negative control. The drug response rate IC50 was calculated with the SPSS 16.0 system.
as §2, §3, §4

HEK293 cells = settings: step-wise concentrations 0.01 to 300 μM, OD490, FIG. 4 and FIG. 8
LNCaP cells = experiment: MTS cell viability assay (CellTiter 96 AQueous One) in LNCaP prostate cancer cells; type: cell-based, human; settings: step-wise concentrations 0.01 to 300 μM, OD490, FIG. 2
Method: as §1
(§5) Cell culture: Prostate cancer cell lines LNCaP and PC-3 were purchased from ATCC (Manassas, Va.). […] The cells were cultured in RPMI+5% Fetal Bovine Serum (FBS).
(§6) The cells treated with the solvents were used as the negative control, and cisplatin and docetaxel were used as the positive controls. The cells were monitored daily, and the cell viability was evaluated with the Promega CellTiter 96 AQueous One Solution Cell Proliferation Assay (Promega, Madison, Wis., USA) according to the manufacture manuals. The cell viability was monitored at OD490 reading in a bio-spectrometer (Perkin Elmer, Walthan, Mass., USA).
Data analysis: The OD490 reading data were collected hourly from 1 h to 4 h after the addition of lysis buffer. The index of cell growth repression ratio was obtained by comparing the OD490 data of treatment to the negative control.

PC-3 cells = experiment: MTS cell viability assay (CellTiter 96 AQueous One) in PC-3 prostate cancer cells; type: cell-based, human; settings: step-wise concentrations 0.01 to 300 μM, OD490, FIG. 1
Method: as §1, §5, §6, §4

| Compound | IC50 (HL-7002 cells [1]) [nM] | IC50 (HCT-116 cells) [nM] | IC50 (HL-7002 cells [2]) [nM] | IC50 (HT29 cells) [nM] | IC50 (HEK293 cells) [nM] | IC50 (LNCaP cells) [nM] | IC50 (PC-3 cells) [nM] |
| --- | --- | --- | --- | --- | --- | --- | --- |
| CC(=O)O[C@@]12CO[C@@H]1C[C@H](O)[C@@]1(C)C(=O)[C@H](O)C3=C(C)[C@@H](OC(=O)[C@H](O)[C@@H](NC(=O)OC(C)(C)C)c4ccccc4)C[C@@](O)([C@@H](OC(=O)c4ccccc4)[C@H]21)C3(C)C [docetaxel] | 95 |  |  |  |  |  |  |
| O=C1[O][Pt]2([NH][C@@H]3CCCC[C@H]3[NH]2)[O]C1=O [oxaliplatin] |  | 8150 | 2440 | 30000 | 10100 |  |  |
| cisplatin |  |  | 2010 |  | 6900 | 2240 | 2490 |
